Reference: publication PMC6410202, “Dual Action of the PN159/KLAL/MAP Peptide: Increase of Drug Penetration across Caco-2 Intestinal Barrier Model by Modulation of Tight Junctions and Plasma Membrane Permeability” (Pharmaceutics, 2019)

Columns and labels:
[1] = tested on: Acinetobacter baumannii (ATCC 17978); experiment: MIC, serial broth dilution; format: cell-based; conditions: ATCC17978, Muller–Hinton broth, 18 h
Method: (§1) The MIC of PN159 on the 6 sensitive and resistant ESKAPE pathogenic strains was determined in cation-adjusted Muller–Hinton broth. […] Minimum inhibitory concentrations (MICs) were determined by using a standard serial broth dilution technique. Briefly, 11-step serial dilutions were prepared in 96-well microtiter plates with three biological replicates per strain. Pathogens were inoculated into each well at a density of 5×10^5 bacteria/mL, and the plates were incubated at 37 °C. Plates were shaken at 300 rpm during incubation for 18 h. Cell growth was monitored by measuring the optical density (OD600 value, Synergy 2 microplate reader BioTek Instruments Inc, Winooski, VT, USA). […] As reference compounds we tested the antimicrobial activity of three bactericidal drugs with different modes of action.

[2] = tested on: Enterococcus faecium (ATCC 700221); experiment: MIC, serial broth dilution; format: cell-based; conditions: ATCC700221, Brain-Heart-Infusion broth, 18 h, vancomycin resistant strain
Method: as §1

[3] = tested on: Klebsiella pneumoniae (ATCC 10031); experiment: MIC, serial broth dilution; format: cell-based; conditions: ATCC10031, Muller–Hinton broth, 18 h
Method: as §1

[4] = tested on: Staphylococcus aureus (ATCC 29213); experiment: MIC, serial broth dilution; format: cell-based; conditions: ATCC29213, Muller–Hinton broth, 18 h
Method: as §1

[5] = tested on: Enterobacter cloacae spp. cloacae (ATCC 13047); experiment: microbe, parasite or virus in culture; conditions: Enterobacter cloacae, ATCC13047, 18 h
Method: as §1

[6] = tested on: Pseudomonas aeruginosa (ATCC 27853); experiment: microbe, parasite or virus in culture; conditions: Pseudomonas aeruginosa, ATCC27853, 18 h
Method: as §1

[7] = tested on: Caco-2 cells; experiment: Impedance measurement (RTCA), Caco-2 cells; format: cell-based; conditions: CPPs 100 μM, 24-h monitoring
Method: Kinetics of epithelial cell reaction to PN159 peptide treatment was monitored by impedance measurement at 10 kHz (RTCA-SP instrument, ACEA Biosciences, San Diego, CA, USA). Impedance measurement is non-invasive, label-free and real time, and linearly correlates with adherence, growth, number and viability of cells. For background measurements 50 μL cell culture medium was added to the wells, then cells were seeded at a density of 6 × 10^3 cells/well to the coated 96-well plates with integrated gold electrodes (E-plate 96, ACEA Biosciences). Cells were cultured for 5–7 days in a CO2 incubator at 37 °C and monitored every 10 min until the end of experiments. Cells were treated with PN159 peptide solutions at 1, 3, 10, 30 and 100 μM concentrations at the beginning of the plateau phase of growth and the effects were followed for 1-h or 24 h. To measure cell recovery, peptide solutions were changed to culture medium and the impedance was monitored for one week. Culture medium was changed every 2 days. Caco-2 cells were also treated with the three selected CPPs, Pep-1, R8 and φ-peptide, at 100 μM concentrations at the beginning of the plateau phase of cell growth for 24-h. Triton X-100 detergent (1 mg/mL) was used as a reference compound to induce cell death. Cell index was defined as Rn-Rb at each time point of measurement, where Rn is the cell-electrode impedance of the well when it contains cells and Rb is the background impedance of the well with the medium alone.

[8] = tested on: Caco-2 cell layers; experiment: Penetration of marker and drug molecules across Caco-2 cell layers (Papp A-B); conditions: CPPs 100 μM, 1-h treatment
Method: (§2) In the permeability experiments inserts with Caco-2 cell layers grown for 3 weeks were transferred to 12-well plates containing 1.5 mL Ringer–Hepes buffer in the lower (basal or acceptor) compartments. In the upper or apical compartments culture medium was replaced by 0.5 mL buffer containing peptide solutions: PN159 peptide at 1, 3, 10 and 30 μM concentrations and CPPs at 100 μM concentration. […] The incubation with permeability markers in the presence of PN159 peptide lasted for 30 min. In case of CPPs the incubation time with fluorescein was 1-h. Samples were collected from both compartments and the concentrations of the marker molecules were determined by a fluorescence multi-well plate reader (Fluostar Optima; excitation wavelength: 485 nm, emission wavelength: 535 nm in the case of fluorescein and excitation wavelength: 584 nm, emission wavelength: 680 nm in the case of Evans-blue labeled albumin). Fluorescein isothiocyanate (FITC)-labelled dextran marker molecules (Table 1) were used at 1 mM concentrations, and fluorescence intensities of collected samples were measured using a Fluorolog FL3-22 (Horiba Jobin Yvon, Paris, France) spectrofluorometer using 492 nm excitation wavelength, 515 nm emission wavelength, and 0.5 s integration time. Drugs were used at 10 μM concentrations and samples were measured by HPLC as described below. The apparent permeability coefficients (Papp) were calculated as described previously. Briefly, cleared volume was calculated from the concentration difference of the tracer in the basal compartments (Δ[C]B) after 30 min and apical compartments at 0 h ([C]A), the volume of the basal compartment (VB; 1.5 mL) and the surface area available for permeability (A; 1.1 cm^2).
(§3) Analytical measurements were performed on a Merck-Hitachi LaChrom HPLC system equipped with an ultraviolet (UV) and fluorescence detector (Merck, Darmstadt, Germany). All reagents used were of analytical reagent grade. […] In both cases 10μL sample was injected into the chromatographic system.
(§4) The chromatographic column was maintained at 40 °C and the 5 μL sample was injected onto the column.
(§5) The column temperature was maintained at 40 °C and a 20 μL sample was injected onto the chromatographic system. […] UV detection was set at 228 nm.

[9] = in vitro; conditions: human, Caco-2, Papp A-B
Method: as §2, §3, §4, §5

[10] = tested on: EpiAirway model; conditions: airway epithelial tissue model, by PN159; cited from earlier work
[11] = tested on: Klebsiella pneumoniae; parameters: method as in PMID 27617798; conditions: cited from earlier work

For `CO[C@@]1(NC(=O)Cc2cccs2)C(=O)N2C(C(=O)O)=C(COC(N)=O)CS[C@@H]21` [Cefoxitin, cefoxitin], the MIC [1] was 223 µM, the MIC [2] was greater than 223 µM and the MIC [3] was 3.5 µM. It also gave an MIC [4] of 6.9 µM, an MIC [5] greater than 223 µM and an MIC [6] greater than 223 µM.

`CNC(C)C1CCC(N)C(OC2C(N)CC(N)C(OC3OCC(C)(O)C(NC)C3O)C2O)O1` (stereo not drawn) [Gentamicin, gentamicin] showed an MIC [1] of 0.6 µM, an MIC [3] of 0.6 µM and an MIC [4] of 1.1 µM. For the same compound, the MIC [5] was 1.1 µM and the MIC [6] was 2.3 µM.

For “cyclo[CGGFWRRRRGE(εAca)G] (cyclo(CGGFWRRRRGE)-{εAca-Gly}) [φ-peptide]”, the “Cell impedance (normalized cell index)” value [7] was “decreased the cell impedance” and the “Permeability for fluorescein marker molecule” value [8] was “elevated permeability”.

Compound `CN/C(=N/CCSCc1nc[nH]c1C)NC#N` [cimetidine] has a Papp A→B at 30 min, 10 μM ([9]; PN159 treated) of 34.5 ± 4.5 ×10⁻⁶ cm/s and a Papp A→B at 30 min, 10 μM ([9]; control) of 0.9 ± 0.2 ×10⁻⁶ cm/s.

For `COc1ccc2c3c1O[C@H]1C[C@@H](O)C=C[C@@]31CCN(C)C2` [galantamine], the Increase of permeability [10] is given as 2 to 3 fold.

For melittin, the “Concentration needed for inhibition of growth” value [11] is given as “more than 100 µM”.

In the case of `N=C(N)NCCC[C@H](NC(=O)[C@H](CCCNC(=N)N)NC(=O)[C@H](CCCNC(=N)N)NC(=O)[C@H](CCCNC(=N)N)NC(=O)[C@H](CCCNC(=N)N)NC(=O)[C@H](CCCNC(=N)N)NC(=O)[C@H](CCCNC(=N)N)NC(=O)[C@@H](N)CCCNC(=N)N)C(N)=O` [R8], the “Cell impedance (normalized cell index)” value [7] is reported as “decreased the cell impedance”.
